Reference: PMC12114375, “Discovery of Hydrazineyl Amide Derivative of Pseudolaric Acid B for Reprogramming Tumor-Associated Macrophages Against Tumor Growth” (Molecules, 2025)
Like-named read-outs stand apart in the source and are kept apart here.

Columns and labels:
[1] = In vivo pharmacokinetic study in mice; design: species or system ICR mice; settings: 1 mg/kg i.v., mean ± SD
Experimental: To investigate the druggability of compound 12, the pharmacokinetic (PK) properties of 12 were examined in mice. The mice were treated with 12 intravenously (i.v.) at a dose of 1 mg/kg, and the resulting PK parameters were recorded.
ICR mice (n = 3) were administered with the test compound via intravenous injection at 1 mg/kg. Blood samples were collected 0.083, 0.25, 0.5, 1, 2, 4, 8, and 24 h after administration. An aliquot of 10 μL of the plasma sample was deproteinized with 200 μL of a MeOH: ACN = 1: 1 solution containing an internal standard. After centrifugation, the supernatant was injected for LC–MS/MS analysis. A standard set of parameters, including the area under the curve (AUC0–∞), elimination half-life (T1/2), time to reach the maximum plasma concentration (Tmax), maximum plasma concentration (Cmax), plasma clearance (Cl), and mean residence time (MRT), were calculated using WinNonlin software.

[2] = test system: ARG1 mRNA expression in RAW 264.7 cells; test: qRT-PCR of ARG1 mRNA in IL-4/IL-13-stimulated RAW 264.7 cells; type: cell-based, mouse; settings: Mus musculus, RAW264.7, IL-4/IL-13 (20 ng/mL) plus compound 10 μM, 12 h, stimulated control = 100%, mean ± SD, read-out: ARG1 mRNA Relative Expression (%)
Source text: We first investigated the impacts of a series of commercially available natural pseudolaric acids or their O-pyranosides (Figure 1) on the pro-tumoral phenotype of TAMs, which play a critical role in anti-tumor immune response modulation. […] In contrast, M1-biased macrophages combat tumor growth and bacterial infections by expressing inducible nitric oxide synthase 2 (NOS2), which catalyzes the production of nitric oxide (NO). Recognizing the pivotal roles of ARG1 and NOS2, we utilized these molecules as key biomarkers and effectors for assessing macrophage immune function. In our experiments, the mouse monocyte–macrophage leukemia cell line RAW 264.7 was induced with IL-4/IL-13 to acquire an M2-like pro-tumoral phenotype. Concurrently, the cells were treated with the pseudolaric acid-related natural products 1–7 at a concentration of 10 μM for 12 h. Additionally, PLX3397 was used as a positive control at a concentration of 0.5 μM. […] As shown in Table 1 and Figure S1A, pseudolaric acid B (1), its deacetoxyl analogue 2 (pseudolaric acid C), and β-D-glucoside 7 substantially attenuated the upregulation of ARG1 mRNA expression induced by IL-4/IL-13, with statistically significant effects. In contrast, bis-carboxylic acids analogs 4 (pseudolaric acid C2) and 6 (demethoxydeacetoxypseudolaric acid B) have no significant impact on ARG1 mRNA expression.
With these carboxylic acid-modified derivatives in hand, we investigated their impact at 10 μM on ARG1 and NOS2 mRNA expression in RAW 264.7 cells pre-stimulated with IL-4/IL-13 to evaluate the effects on the pro-tumor phenotype of macrophages. […] Further removal of one hydroxyl from the glycerol moiety 15 further enhanced the inhibitory effect on ARG1 expression but had no significant impact on NOS2 expression.
Total RNA was isolated from cells using the EZ-press RNA Purification Kit (EZBioscience, Suzhou, China) and subjected to reverse transcription with the 5×HiScript II qRT SuperMix II (Vazyme, Nanjing, China). PCR was performed with the 2×ChamQ Universal SYBR qPCR Master Mix (Vazyme, Nanjing, China). All primers for qRT-PCR are described in Table S1. The 2^−∆∆Ct method was utilized to calculate the fold change in gene expression, with the expression levels in the stimulated group set as the baseline for normalization.

[3] = test system: M2-like polarization of BMDMs (CD206, CD86); test: Macrophage phenotype analysis by flow cytometry (CD206, CD86) in BMDMs; type: cell-based, mouse; settings: CSF-1-differentiated BMDMs, IL-4 and IL-13, 48 h, different concentrations
Experimental: We also extended the test to primary murine macrophages derived from bone marrow (BMDMs), which were cultured in vitro with recombinant mouse M-CSF for 6 days. The BMDMs were then stimulated with IL-4/IL-13, leading to their transformation into M2-like pro-tumoral macrophages. This transformation was characterized by an increase in both ARG1 and CD206 expression and a decrease in both NOS2 and MHC II expression. […] Subsequently, we assessed the capacity of compound 12 to inhibit the M2-like polarization of macrophages using CSF-1-differentiated mouse BMDMs. These cells were treated with IL-4 and IL-13 for 48 h, and the expression levels of CD206, an M2-type marker, and CD86, an M1-type marker, were analyzed via flow cytometry. […]
BMDMs were collected and stained with a fluorescent antibody or the matching isotype controls for 30 min at room temperature and then tested using a BD CytoFLEX LX (Beckman, CA, USA). […] Data were analyzed using FlowJo10.4 software.
Figure 2 Compound 12 inhibits the M2-like polarized phenotype of macrophages. […] The expression levels of the markers CD206 and CD86 on induced macrophages were determined by flow cytometry, and the mean fluorescence intensity (MFI) was analyzed with FlowJo (C), or the cells were lysed and immunoblotted to detect the indicated proteins (D). […]

Structure (SMILES): COC(=O)C1=CC[C@@]23CC[C@@H]([C@@](C)(/C=C/C=C(\C)C(=O)NNCCO)OC2=O)[C@@]3(OC(C)=O)CC1 [compound 12, Methyl(3R,4S,4aS,9aR)-4a-acetoxy-3-((1E,3E)-5-(2-(2-hydroxyethyl)hydrazineyl)-4-methyl-5-oxopenta-1,3-dien-1-yl)-3-methyl-1-oxo-3,4,4a,5,6,9-hexahydro-1H-4,9a-ethanocyclohepta[c]pyran-7-carboxylate]
- Tmax ([1]; n = 3, 1 mg/kg): 5 ± 0 min
- AUC(0-inf) ([1]; ICR, mouse, plasma, iv, n = 3): 363 ± 29.4 ng·h/mL
- Cmax ([1]; ICR, mouse, plasma, iv, n = 3): 32.1 ± 11.7 ng/mL
- clearance ([1]; ICR, mouse, plasma, iv, n = 3): 46.1 mL/min/kg
- half-life ([1]; ICR, mouse, plasma, iv, n = 3): 40.2 ± 6.88 h
- MRT inf ([1]; ICR, mouse, plasma, iv, n = 3, read-out: MRT0–∞): 63.1 ± 7.96 h
- Tmax ([1]; ICR, mouse, plasma, iv, 1 mg/kg, n = 3, read-out: Tmax): 4.98 min
- mrna remaining at 10 µM [2]: 1.4 ± 1.1%
- CD86 expression (MFI, flow cytometry) [3]: increase in CD86 expression
- CD206 expression (MFI, flow cytometry) [3]: decrease in CD206 expression
